Measurements from PubChem BioAssay AID1920066 (Derbyshire Lab, Chemistry Department, Duke University, 2024).

Assays:
[1] = test system: Heat shock protein 90 (Plasmodium falciparum), GFP-tagged; assay: competitive binding to P. falciparum Hsp90 – cell lysate, FLECS, GFP-tagged PfHsp90, E. coli lysate, confirmation (AID 1920066); settings: E. coli lysate PfHsp90-GFP ATP-resin elution, fluorescence; at 500 µM; stronger effect = higher value
[2] = as above; settings: liver stage Plasmodium parasite inhibition

In the case of `CCOC(=O)NCc1ccc(-n2c(-c3cc(C(C)C)c(O)cc3O)n[nH]c2=S)cc1`, the relative binding (F/Fo) [1] is reported as 4.9 and the EC50 [2] is reported as 1.5 µM.

Work on `CC[C@@H](C)Nc1cc(C(=O)NC2CC3CCC(C2)N3c2ccc(C(=O)C3CC3)cn2)c(C)cc1C(N)=O` (some centres undefined) yielded a relative binding (F/Fo) [1] of 3.44 and an EC50 [2] of 0.24 µM.

With `Cc1ccc(C(C)C)c(OCC(=O)Nc2cccc3cnccc23)c1` the relative binding (F/Fo) [1] was 2.15 and the EC50 [2] was > 30 µM.

With `CS(=O)(=O)c1cccc(C(=O)Nc2nc3ccccc3nc2N2CCCC2)c1` the relative binding (F/Fo) [1] was 2.59 and the EC50 [2] was > 30 µM.

For `Cn1cc(S(=O)(=O)N2CCN(C(=O)c3ccc(F)cc3)CC2)cc1C(N)=O`, the relative binding (F/Fo) [1] was 2.06 and the EC50 [2] was > 10 µM.

In the case of `NC(=O)c1ccc(NC(=O)CN2CSCC2=O)cc1`, the relative binding (F/Fo) [1] is reported as 2.54 and the EC50 [2] is reported as > 30 µM.

In the case of `CN(CC(=O)N1CCCC1)c1ncnc2cc(Cl)ccc12`, the relative binding (F/Fo) [1] is reported as 2.06 and the EC50 [2] is reported as > 30 µM.
